Laboratory results taken from BigSolDB 2.1.

Nc1ccc(Cc2ccc(N)c(Cl)c2)cc1Cl
solubility (mole fraction)
Conditions | 283.15 K | 288.15 K | 293.15 K | 298.15 K | 303.15 K | 308.15 K | 313.15 K | 318.15 K | 323.15 K | 328.15 K
in 1,4-dioxane | – | 0.206 | 0.217 | 0.236 | 0.258 | 0.285 | 0.32 | 0.354 | 0.394 | 0.443
in DMAc | 0.339 | 0.348 | 0.366 | 0.384 | 0.41 | 0.436 | 0.466 | 0.502 | 0.548 | 0.587
in DMF | 0.306 | 0.316 | 0.33 | 0.347 | 0.373 | 0.396 | 0.425 | 0.462 | 0.502 | 0.545
in acetonitrile | 0.0208 | 0.0225 | 0.0251 | 0.0283 | 0.0323 | 0.0367 | 0.0419 | 0.048 | 0.0574 | 0.0671
in ethanol | 0.0223 | 0.0242 | 0.0272 | 0.0314 | 0.0362 | 0.0424 | 0.049 | 0.057 | 0.0677 | 0.0803
in ethyl acetate | 0.115 | 0.123 | 0.134 | 0.146 | 0.162 | 0.177 | 0.196 | 0.223 | 0.254 | 0.287
in ethylene glycol | 0.0057 | 0.00624 | 0.00816 | 0.00975 | 0.0123 | 0.0148 | 0.0181 | 0.0208 | 0.0239 | 0.0281
in isobutanol | 0.0136 | 0.015 | 0.0172 | 0.0197 | 0.0227 | 0.0259 | 0.0301 | 0.0357 | 0.0426 | 0.0513
in isopropanol | 0.0189 | 0.0203 | 0.0226 | 0.0261 | 0.0294 | 0.0336 | 0.039 | 0.0447 | 0.0532 | 0.0623
in methanol | 0.0163 | 0.018 | 0.02 | 0.0231 | 0.026 | 0.0297 | 0.0347 | 0.0405 | 0.048 | 0.0565
in n-butanol | 0.0298 | 0.0323 | 0.037 | 0.0425 | 0.0484 | 0.0551 | 0.0632 | 0.0737 | 0.0873 | 0.105
in n-propanol | 0.0257 | 0.0278 | 0.0322 | 0.0369 | 0.0422 | 0.0484 | 0.0562 | 0.066 | 0.0783 | 0.094
in water | 0.00014 | 0.000172 | 0.000228 | 0.000286 | 0.000342 | 0.000409 | 0.000475 | 0.000559 | 0.000684 | 0.000842
